Source: US12473250B2, “Molecular design of new antibiotics and antibiotic adjuvants against MCR strains” (priority 2019, dated 2025)
Like-named read-outs stand apart in the source and are kept apart here.

Legend:
Format in all cases: cell-based
[1] = test system: colistin resistant MCR (+) E. Coli strains; assay: MIC, broth microdilution, compound alone; conditions: compound alone
Description: (§1) MIC experiments of the antimicrobial agents were determined by a modified broth microdilution method in accordance with the Clinical and Laboratory Standards Institute (CLSI) guidelines using 96 well culture plates. In brief, serial dilutions of all plates were prepared at different concentrations (μg). The inoculum suspension was prepared by adding isolated colonies from a 18-20 hours on TSA plate into phosphate buffer (0.31 mM, pH 7.2) or in water for injection (BBraun) and adjusting the suspension to a turbidity equivalent to 0.5 McFarland Standard. Each well contained a final bacterial concentration of approximately 5×10^5 colony forming units (CFU)/mL. The plate was covered and incubated at 35° C. for 24 hours. […] For the microdilution plates, turbidity in wells can be measured at OD600 using TECAN infinite M200Pro. MIC was determined as […] concentration that gives a 99 percent inhibition.

[2] = test system: colistin resistant MCR (−) E. Cloacae strain 7023456439; assay: MIC, broth microdilution, compound alone; conditions: strain 7023456439 E. Cloacae
Description: as §1

[3] = test system: colistin resistant MCR (−) E. Coli strains; assay: MIC, broth microdilution, compound alone
Description: as §1

[4] = test system: colistin resistant MCR (+) E. Coli strains; assay: Synergy study: colistin MIC in the presence of compound
Description: (§2) The MICs of the individual drugs and LC compound in combinations were determined using the broth microdilution technique as recommended by the CLSI whereby the two anti-microbial agents were added in an equal amount. (e.g.: 50 μL of Colistin: 50 μL of LC compounds). Diluted media containing compounds and antibiotics will be serially diluted 2-fold, and LC compounds and antibiotics alone or in combination will be assayed at fixed synergy concentration. In all cases, the lowest concentration at which no visible growth occurred was be recorded to be the MIC value of individual and combined antibacterial agents. The results were obtained after 24 hours of incubation.

[5] = test system: colistin resistant MCR (−) E. Cloacae strain 7023456439; assay: as above; conditions: strain 7023456439 E. Cloacae
Description: as §2

[6] = test system: colistin resistant MCR (−) E. Coli strains; assay: as above
Description: as §2

[7] = strain 6075066346, MCR(+), compound at 2 μg
[8] = strain 6083655967, MCR(+), compound at 2 μg
[9] = strain 6103645107, MCR(+), compound at 2 μg
[10] = strain 6123520276, MCR(+), compound at 2 μg
[11] = strain 7013177695, MCR(+), compound at 2 μg
[12] = strain 7023436560, MCR(+), compound at 2 μg
[13] = strain 7023444207, MCR(+), compound at 2 μg
[14] = strain 6083672926, MCR(−), compound at 2 μg
[15] = strain 7023446108, MCR(−), compound at 2 μg
[16] = strain 7033607097, MCR(−), compound at 2 μg
[17] = compound at 10 μg (Table 2a: 10 ug/ml)
[18] = strain 6083672926, MCR(−), compound at 10 μg (Table 2a: 10 ug/ml)
[19] = strain 7023446108, MCR(−), compound at 10 μg (Table 2a: 10 ug/ml)
[20] = strain 7033607097, MCR(−), compound at 10 μg (Table 2a: 10 ug/ml)

Compound | MIC ([1]; strain 6075066346, MCR (+)) | MIC ([1]; strain 6083655967, MCR (+)) | MIC ([1]; strain 6103645107, MCR (+)) | MIC ([1]; strain 6123520276, MCR (+)) | MIC ([1]; strain 7013177695, MCR (+)) | MIC ([1]; strain 7023436560, MCR (+)) | MIC ([1]; strain 7023444207, MCR (+)) | MIC [2] | MIC ([3]; strain 6083672926, MCR (−)) | MIC ([3]; strain 7023446108, MCR (−)) | MIC ([3]; strain 7033607097, MCR (−)) | Colistin MIC in the presence of the compound [4, 7] | Colistin MIC in the presence of the compound [4, 8] | Colistin MIC in the presence of the compound [4, 9] | Colistin MIC in the presence of the compound [4, 10] | Colistin MIC in the presence of the compound [4, 11] | Colistin MIC in the presence of the compound [4, 12] | Colistin MIC in the presence of the compound [4, 13] | Colistin MIC in the presence of the compound ([5]; compound at 2 μg) | Colistin MIC in the presence of the compound [6, 14] | other results
CC(C)=CCc1c(OCCCC[n+]2ccn(C)c2)ccc(C(=O)/C=C/c2ccc(OCCCC[n+]3ccn(C)c3)cc2)c1O [LC350] | 3.125 mg/L | 3.125 mg/L | 3.125 mg/L | 3.125 mg/L | 3.125 mg/L | 3.125 mg/L | 3.125 mg/L | >50 mg/L | 3.125 mg/L | 3.125 mg/L | 3.125 mg/L | 0.195 mg/L | 0.195 mg/L | 0.195 mg/L | 0.195 mg/L | 0.195 mg/L | 0.195 mg/L | 0.195 mg/L | >12.5 mg/L | 0.195 mg/L | Colistin MIC in the presence of the compound [6, 15]: 0.195 mg/L; Colistin MIC in the presence of the compound [6, 16]: 0.195 mg/L
O=C(O)CN(CCN(CC(=O)O)CC(=O)O)CC(=O)O [EDTA, Ethylenediaminetetraacetic acid, reference compound] | – | >250 mg/L | >250 mg/L | >250 mg/L | >250 mg/L | >250 mg/L | >250 mg/L | – | >250 mg/L | – | >250 mg/L | – | – | – | – | – | – | – | – | – | MIC ([1]; Escherichia coli, strain 6075066346, MCR (+), read-out: MIC): > 250 mg/L; MIC ([2]; Enterobacter cloacae, read-out: MIC): > 250 mg/L; MIC ([3]; Escherichia coli, strain 7023446108, MCR (−), read-out: MIC): > 250 mg/L; concentration at which the compound shows synergy with colistin ([4]; against mcr-1 bacteria): higher than 250 μg/ml; Colistin MIC in the presence of the compound ([4]; strain 6083655967, MCR(+), compound at 250 ug/ml): 0.78 mg/L; Colistin MIC in the presence of the compound ([4]; strain 6103645107, MCR(+), compound at 250 ug/ml): 0.39 mg/L; Colistin MIC in the presence of the compound ([4]; strain 6123520276, MCR(+), compound at 250 ug/ml): 0.78 mg/L; Colistin MIC in the presence of the compound ([4]; strain 7013177695, MCR(+), compound at 250 ug/ml): 0.78 mg/L; Colistin MIC in the presence of the compound ([4]; strain 7023436560, MCR(+), compound at 250 ug/ml): 0.39 mg/L; Colistin MIC in the presence of the compound ([5]; compound at 250 ug/ml): 3.125 mg/L; Colistin MIC in the presence of the compound ([6]; strain 6083672926, MCR(−), compound at 250 ug/ml): 0.78 mg/L; Colistin MIC in the presence of the compound ([6]; strain 7023446108, MCR(−), compound at 250 ug/ml): 0.39 mg/L; Colistin MIC in the presence of the compound ([6]; strain 7033607097, MCR(−), compound at 250 ug/ml): 0.195 mg/L
CC1(C)C=Cc2c(ccc3c2OCC(c2ccc(OCCCCC[N+](C)(C)C)cc2OCCCCC[N+](C)(C)C)C3)O1 (stereo not drawn) [LC316] | 50 mg/L | 50 mg/L | 50 mg/L | 50 mg/L | 50 mg/L | 50 mg/L | 50 mg/L | >50 mg/L | >50 mg/L | 50 mg/L | >50 mg/L | – | – | – | – | – | – | – | – | – | Colistin MIC in the presence of the compound ([4]; strain 6075066346, MCR(+), compound at 5 μg (Table 2a: 5 ug/ml)): 1.55 mg/L; Colistin MIC in the presence of the compound ([5]; compound at 5 μg (Table 2a: 5 ug/ml)): >12.5 mg/L; Colistin MIC in the presence of the compound ([6]; strain 6083672926, MCR(−), compound at 5 μg (Table 2a: 5 ug/ml)): 6.25 mg/L; Colistin MIC in the presence of the compound ([6]; strain 7023446108, MCR(−), compound at 5 μg (Table 2a: 5 ug/ml)): 1.56 mg/L; Colistin MIC in the presence of the compound ([6]; strain 7033607097, MCR(−), compound at 5 μg (Table 2a: 5 ug/ml)): 1.56 mg/L
CC(C)=CCc1c(OCCCCC[N+](C)(C)C)ccc(C(=O)/C=C/c2ccc(OCCCCC[N+](C)(C)C)cc2)c1O [LC311] | 3.125 mg/L | 3.125 mg/L | 3.125 mg/L | 6.25 mg/L | 6.25 mg/L | 3.125 mg/L | – | 6.25 mg/L | 3.125 mg/L | 3.125 mg/L | 6.25 mg/L | 0.78 mg/L | 0.39 mg/L | 0.39 mg/L | 0.39 mg/L | 0.78 mg/L | 0.39 mg/L | 0.39 mg/L | >12.5 mg/L | 0.39 mg/L | MIC ([1]; strain 7028444207 (Table 1b), MCR (+)): 3.125 mg/L; Colistin MIC in the presence of the compound [6, 15]: 0.78 mg/L; Colistin MIC in the presence of the compound [6, 16]: 0.195 mg/L
CC1(C)C=Cc2c(ccc3c2OCC(c2ccc(OCC(=O)NC(CCCNC(=N)N)C(N)=O)cc2OCC(=O)NC(CCCNC(=N)N)C(N)=O)C3)O1 (stereo not drawn) [LC127] | >50 mg/L | >50 mg/L | >50 mg/L | >50 mg/L | >50 mg/L | >50 mg/L | >50 mg/L | >50 mg/L | >50 mg/L | >50 mg/L | >50 mg/L | – | – | – | – | – | – | – | – | – | Colistin MIC in the presence of the compound [5, 17]: >12.5 mg/L; Colistin MIC in the presence of the compound [6, 18]: 12.5 mg/L; Colistin MIC in the presence of the compound [6, 19]: 6.25 mg/L; Colistin MIC in the presence of the compound [6, 20]: 6.25 mg/L
CC(C)=CCc1c(OCCC[N+](C)(C)C)ccc(C(=O)/C=C/c2ccc(OCCC[N+](C)(C)C)cc2)c1O [LC312] | 12.5 mg/L | 12.5 mg/L | 12.5 mg/L | 12.5 mg/L | 12.5 mg/L | 6.25 mg/L | 12.5 mg/L | >50 mg/L | 12.5 mg/L | 6.25 mg/L | 12.5 mg/L | – | – | – | – | – | – | – | – | – | Colistin MIC in the presence of the compound [5, 17]: >12.5 mg/L; Colistin MIC in the presence of the compound [6, 18]: <0.0975 mg/L; Colistin MIC in the presence of the compound [6, 19]: <0.0975 mg/L; Colistin MIC in the presence of the compound [6, 20]: <0.0975 mg/L
